By Ki is commonly meant the dissociation constant of the complex between target and ligand, obtained from inhibition or displacement.

The target of this test is Carbonic anhydrase 12 (Homo sapiens, UniProt O43570).
Carbonic anhydrase 12, sequence (O43570 whole entry): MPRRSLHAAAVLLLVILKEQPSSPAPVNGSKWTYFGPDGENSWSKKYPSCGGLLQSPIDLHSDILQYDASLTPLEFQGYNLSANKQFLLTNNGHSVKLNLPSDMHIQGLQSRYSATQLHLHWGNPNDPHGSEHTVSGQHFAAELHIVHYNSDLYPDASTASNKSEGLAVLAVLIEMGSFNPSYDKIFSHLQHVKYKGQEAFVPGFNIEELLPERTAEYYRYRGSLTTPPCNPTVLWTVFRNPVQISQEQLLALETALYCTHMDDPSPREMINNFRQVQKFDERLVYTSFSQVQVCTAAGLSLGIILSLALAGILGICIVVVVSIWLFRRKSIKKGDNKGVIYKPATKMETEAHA
`NS(=O)(=O)c1ccc(C(=O)O)cc1` [CARZENIDE] showed a Ki of 34 nM.

Turning to `NNc1ccccc1S(N)(=O)=O`, the affinity, expressed as Ki, was 58 nM. Compound `CN(N)c1ccc(S(N)(=O)=O)cc1` registered a Ki of 11 nM.

In turn, `Cc1ccc(S(N)(=O)=O)cc1` [P-TOLUENESULFONAMIDE] showed a Ki of 1.8 nM.

Consider `NS(=O)(=O)c1nnc(-c2ccccc2Cl)s1`, for which the Ki was found to be 36 nM.

The compound `Nc1ccc(S(=O)(=O)NCc2ccc(S(N)(=O)=O)cc2)cc1` gave a Ki of 3.5 nM. With `Nc1ccc(S(N)(=O)=O)cc1Br`, the Ki amounted to 20 nM.

Regarding `NCc1ccc(S(N)(=O)=O)cc1` [MAFENIDE], the affinity, expressed as Ki, was 0.3 nM. `Nc1ccc(S(=O)(=O)NCCc2ccc(S(N)(=O)=O)cc2)cc1` gave a Ki of 4.5 nM.

The compound `Nc1ccc(S(N)(=O)=O)cc1Cl` returned a Ki of 3.1 nM. Regarding `CNc1ccc(S(N)(=O)=O)cc1`, the Ki came out at 37 nM. Consider `NS(=O)(=O)c1ccc(CCO)cc1`, for which the Ki came to 55 nM.

`Nc1ccc(S(N)(=O)=O)cc1F` gave a Ki of 1.1 nM. `Nc1ccccc1S(N)(=O)=O` had a Ki of 0.85 nM. As to `NS(=O)(=O)c1ccc(CO)cc1`, the Ki was found to be 220 nM. Regarding `Cn1nc(S(N)(=O)=O)sc1=N`, the Ki worked out at 4 nM. Take `Nc1ccc(S(=O)(=O)Nc2nnc(S(N)(=O)=O)s2)cc1`: the affinity, expressed as Ki, was 85 nM. For `Nc1nccc(Nc2ccc(S(N)(=O)=O)cc2)n1`, the Ki was found to be 3.4 nM.

In turn, `N[S+]([O-])c1ccc(S(=O)(=O)Nc2cccc3c(Cl)c[nH]c23)cc1` (stereo not given) showed a Ki of 3.4 nM. The compound `Nc1ccc(S(N)(=O)=O)cc1I` came in with a Ki of 11 nM.

For the origin of these results see ChEMBL document CHEMBL1141984, “Carbonic anhydrase inhibitors. Inhibition of the transmembrane isozyme XII with sulfonamides-a new target for the design of antitumor and antiglaucoma drugs?” (Bioorg Med Chem Lett, 2005).
